The values below come from PMC4336777 (Archives of biochemistry and biophysics, 2014).

“Also recorded” adds a separate entry of the source. Like-named read-outs stand apart in the source and are kept apart here.

In test [1] the target is T1, Myeloperoxidase (MPO) (Homo sapiens, UniProt P05164). Description: MPO fluorescence stopped flow assay. The settings on record: for k−3: same fixed constants; for Akaike weight / ΔAICc: Dynafit 3 model discrimination; for best fitting slow binding inhibition model: Akaike information criterion based discrimination.
T1 sequence (P05164 165-273 limits assumed): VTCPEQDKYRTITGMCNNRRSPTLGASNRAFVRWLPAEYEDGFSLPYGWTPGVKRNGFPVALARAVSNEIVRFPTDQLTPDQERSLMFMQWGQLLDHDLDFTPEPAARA
T1 sequence (P05164 279-745 limits assumed): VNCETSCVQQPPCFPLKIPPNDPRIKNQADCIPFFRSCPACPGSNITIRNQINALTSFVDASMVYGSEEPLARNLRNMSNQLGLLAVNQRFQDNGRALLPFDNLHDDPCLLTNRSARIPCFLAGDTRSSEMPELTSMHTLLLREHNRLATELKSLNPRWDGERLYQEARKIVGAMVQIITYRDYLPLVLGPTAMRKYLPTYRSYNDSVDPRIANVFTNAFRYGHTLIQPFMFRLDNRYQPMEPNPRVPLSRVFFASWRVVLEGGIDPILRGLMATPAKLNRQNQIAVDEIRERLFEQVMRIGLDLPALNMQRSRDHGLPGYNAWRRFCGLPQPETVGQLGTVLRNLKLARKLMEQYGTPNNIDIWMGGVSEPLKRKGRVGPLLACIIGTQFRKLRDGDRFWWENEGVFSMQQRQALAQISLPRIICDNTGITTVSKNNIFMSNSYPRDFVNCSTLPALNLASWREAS
Test [2] concerns the target T1, Myeloperoxidase (MPO). Description: SDS-PAGE analysis of inhibitor-mediated cleavage of MPO. Format: biochemical. The settings on record: MPO 1.2 μM, ADHP 40 μM, inhibitor 0-25 mM, H2O2 20 μM, 10 min, room temperature.
Test [3] addresses T1, Myeloperoxidase (MPO). The settings on record: for apparent kcat of MPO for ADHP in presence of inhibitor: Lineweaver-Burk.
For test [4], the target named is T1, Myeloperoxidase (MPO). Conditions: MPO 23 nM pre-incubated with inhibitor 1 hr without H2O2, dialysis, then H2O2.
[5] abbreviates: 1 or 2-step slow tight-binding fit, DynaFit 3, fixed k+1 = 10 μM^−1s^−1, k−1 = 80 s^−1, k+2 = 224 s^−1, pH 5.6, 25°C.
The mark [6] stands for this setting: 1 or 2-step slow tight-binding fit, DynaFit 3.
[7] abbreviates: 2-step slow tight-binding fit, DynaFit 3.

Take `NNC(=O)c1ccccc1N` [2-ABAH, 2-aminobenzoic acid hydrazide]: the “k+3” value at Myeloperoxidase (MPO) [1] (setting [5]) is 0.10 ± 0.0014 µM⁻¹ s⁻¹. In addition, at Myeloperoxidase (MPO) [1] (setting [6]), the “k−3” value turned out to be 0.026 ± 0.0003 s⁻¹. At Myeloperoxidase (MPO) [1] (1 step model), this compound gave an Akaike weight of 0.01127 and a ΔAICc of 8.9. Further, at Myeloperoxidase (MPO) [1] (setting [7]), the “k+4” value amounted to 0.0067 ± 0.0004 s⁻¹ and the “k−4” value came to 0.0094 ± 0.002 s⁻¹. At Myeloperoxidase (MPO) [1] (2 step model), this compound returned an Akaike weight of 0.9887 and a ΔAICc of 0. For the same compound, the “best fitting slow binding inhibition model” value at Myeloperoxidase (MPO) [1] is on record as “two-step slow binding inhibitor; also recorded: two-step mechanism”. Besides, on Myeloperoxidase (MPO) [1] (Ki* (overall inhibition constant, two-step model), two-step slow tight-binding model, Eq. 9), the Ki amounted to 160 nM. The compound further came in with a Ki at Myeloperoxidase (MPO) [1] (Ki, Ki = k−3/k+3, DynaFit 3) of 260 nM. Also, the “fold higher affinity inhibitor of Compound I as compared to isoniazid” value at Myeloperoxidase (MPO) [1] (from Ki* versus Ki of isoniazid) stood at 62 fold.
`CN(C)c1cccc(C(=O)NN)c1` [3-DMABAH, 3-(dimethylamino) benzoic acid hydrazide] registered a Ki on Myeloperoxidase (MPO) [1] (Ki, Ki = k−3/k+3, DynaFit 3) of 560 nM.
With `NNC(=O)c1ccc(F)cc1` [4-FBAH, 4-fluorobenzoic acid hydrazide], the “k+3” value at Myeloperoxidase (MPO) [1] (setting [5]) stood at 0.0075 ± 4.93E-05 μM^−1s^−1. The “k−3” value on Myeloperoxidase (MPO) [1] (setting [6]) amounted to 0.0062 ± 0.0001 s⁻¹. Further, on Myeloperoxidase (MPO) [1] (1 step model), the Akaike weight came to 0.9196 and the ΔAICc was determined as 0. On Myeloperoxidase (MPO) [1] (2 step model), the Akaike weight is listed as 0.0804 and the ΔAICc is listed as 4.9. On Myeloperoxidase (MPO) [1] (Ki, Ki = k−3/k+3, DynaFit 3), this compound yielded a Ki of 830 nM.
Compound `NNC(=O)c1ccc([N+](=O)[O-])cc1` [4-NBAH, 4-nitrobenzoic acid hydrazide] yielded a Ki at Myeloperoxidase (MPO) [1] (Ki, Ki = k−3/k+3, DynaFit 3) of 3700 nM.
With `NNC(=O)c1ccc(C(F)(F)F)cc1` [4-TFMBAH, 4-(trifluoromethyl) benzoic acid hydrazide], the “k+3” value on Myeloperoxidase (MPO) [1] (setting [5]) is given as 0.0013 ± 1.36E-05 μM^−1s^−1. The “k−3” value on Myeloperoxidase (MPO) [1] (setting [6]) is 0.004 ± 0.0002 s⁻¹. At Myeloperoxidase (MPO) [1] (1 step model), the Akaike weight was found to be 0.909 and the ΔAICc came to 0. At Myeloperoxidase (MPO) [1] (2 step model), this compound showed an Akaike weight of 0.09104 and a ΔAICc of 4.6. Further, the “best fitting slow binding inhibition model” value at Myeloperoxidase (MPO) [1] is “one-step slow binding inhibition model”. The same compound returned a Ki at Myeloperoxidase (MPO) [1] (Ki, Ki = k−3/k+3, DynaFit 3) of 3080 nM.
As for `CC(=O)N1c2ccc(O)cc2Oc2cc(O)ccc21` [ADHP, 10-acetyl-3,7-dihydroxyphenoxazine, reference compound], on Myeloperoxidase (MPO) [1] (read-out: apparent second order rate constant (K^appon)), the kon turned out to be 2100 ± 200 M⁻¹ s⁻¹.
For `NNC(=O)c1ccccc1` [BAH, benzoic acid hydrazide], the “k+3” value at Myeloperoxidase (MPO) [1] (setting [5]) is given as 0.0098 ± 5.47E-05 μM^−1s^−1. Besides, the “k−3” value on Myeloperoxidase (MPO) [1] (setting [6]) is given as 0.0068 ± 9.5E-05 s^−1. Also, the results for the Akaike weight at Myeloperoxidase (MPO) [1] (1 step model) and at Myeloperoxidase (MPO) [1] (2 step model) were 0.9969 and 0.00315, respectively. Besides, the ΔAICc at Myeloperoxidase (MPO) [1] (1 step model) worked out at 0; at Myeloperoxidase (MPO) [1] (2 step model), 11.5. This compound displayed a Ki on Myeloperoxidase (MPO) [1] (Ki, Ki = k−3/k+3, DynaFit 3) of 690 nM. Moreover, the “cleavage of MPO light chain-heme from heavy chain” value on Myeloperoxidase (MPO) [2] is listed as “light chain of MPO is cleaved from MPO”.
Turning to `OO` [H2O2, hydrogen peroxide], the Ki at Myeloperoxidase (MPO) [3] (read-out: apparent inhibitory rate constant Ki (substrate inhibition)) amounted to 10.8 nM.
In the case of `NNC(=O)c1ccncc1` [Isoniazid, isonicotinylhydrazine, reference compound], the “k+3” value on Myeloperoxidase (MPO) [1] (setting [5]) is 0.0011 ± 7.31E-06 μM^−1s^−1. The “k−3” value on Myeloperoxidase (MPO) [1] (setting [6]) was 0.011 ± 0.0001 s⁻¹. On Myeloperoxidase (MPO) [1] (1 step model), this compound showed an Akaike weight of 0.8857 and a ΔAICc of 0. Besides, on Myeloperoxidase (MPO) [1] (2 step model), the Akaike weight was 0.1143 and the ΔAICc turned out to be 4.1. For the same compound, at Myeloperoxidase (MPO) [1], the “best fitting slow binding inhibition model” value is “one-step slow binding inhibition model”. On Myeloperoxidase (MPO) [1] (Ki, Ki = k−3/k+3, DynaFit 3), this compound displayed a Ki of 10000 nM.
For `[N-]=[N+]=[N-].[Na+]` [NaN3, sodium azide, reference compound], the “reversibility of inhibitor binding to MPO after equilibrium dialysis” value at Myeloperoxidase (MPO) [4] was “reversible”. In addition, the “k−3” value at Myeloperoxidase (MPO) [1] (setting [6]) was 0.156 ± 0.001 s⁻¹. Besides, the Akaike weight is listed as 0.8814 at Myeloperoxidase (MPO) [1] (1 step model) and 0.1186 on Myeloperoxidase (MPO) [1] (2 step model). Moreover, the figures for the ΔAICc on Myeloperoxidase (MPO) [1] (1 step model) and on Myeloperoxidase (MPO) [1] (2 step model) were 0 and 4.0, respectively. At Myeloperoxidase (MPO) [1], the “best fitting slow binding inhibition model” value is given as “one-step slow binding inhibition model”. The same compound yielded a Ki on Myeloperoxidase (MPO) [1] (Ki = k−3/k+3, DynaFit 3) of 840 nM. Besides, the “k+3” value on Myeloperoxidase (MPO) [1] (pH 5.6) stood at 0.185 ± 0.0018 µM⁻¹ s⁻¹. Further, the “type of inhibition with ADHP” value on Myeloperoxidase (MPO) [3] (Lineweaver-Burk plots, 0, 7.5, 30 μM NaN3) is reported as “competitive inhibition or mixed-type inhibition”. Also, the figures for the “apparent kcat of MPO for ADHP in presence of inhibitor” value on Myeloperoxidase (MPO) [3] (NaN3 7.5 μM) and on Myeloperoxidase (MPO) [3] (NaN3 30 μM) were 161 s⁻¹ and 108 s⁻¹, respectively. On Myeloperoxidase (MPO) [3] (native system versus 30 μM NaN3), the “fold reduction in apparent specificity constant (kcat/Km)” value worked out at 11 fold.
